Laboratory results from ChEMBL document CHEMBL3992552, “Mechanisms of action and structure-activity relationships of cytotoxic flavokawain derivatives” (Bioorg Med Chem, 2017).
Activity calls are given as the source filed them. The calls are words filed in the database; no cut-off is given here.

system: PC-3; assay: Cell cycle arrest in human PC3 cells harboring p53 mutant assessed as mitotic index at 10 uM measured after 48 hrs by Hoechst staining based fluorescence assay (reference value: 2.5); assay type: functional; details: not given

| SMILES | Activity_index |
| --- | --- |
| COc1cccc(/C=C/C(=O)c2c(OC)cc(OC)cc2OC)c1 | 27.6 |

system: Huh-7; assay: Cell cycle arrest in human HuH7 cells assessed as accumulation at S phase at 25 uM measured after 48 hrs by Hoechst/BrdU staining based fluorescence assay (reference value: 44%); assay type: functional; details: not given

| SMILES | Activity [%] |
| --- | --- |
| COc1cccc(/C=C/C(=O)c2c(OC)cc(OC)cc2OC)c1 | 0.3 |

system: HCT-116; assay: Cell cycle arrest in human HCT116 cells assessed as accumulation at G1/S phase by Hoechst staining based fluorescence assay; assay type: functional; details: not given

| SMILES | Activity |
| --- | --- |
| COc1cccc(/C=C/C(=O)c2c(OC)cc(OC)cc2OC)c1 | Active |

system: Huh-7; assay: Cytotoxicity against human HuH7 cells assessed as cell survival at 50 uM after 48 hrs by Hoechst 33342 staining based assay relative to control; assay type: functional; details: Huh-7, 48 h, read-out: Survival

| SMILES | viability at 50 µM [%] |
| --- | --- |
| COc1cccc(/C=C/C(=O)c2c(OC)cc(OC)cc2OC)c1 | 3 |

system: not listed separately; assay: Selectivity index, ratio of IC50 for human fibroblasts to IC50 for human PC3 cells; details: not given

| SMILES | Ratio IC50 |
| --- | --- |
| COc1cccc(/C=C/C(=O)c2c(OC)cc(OC)cc2OC)c1 | >16.1 |

system: HaCaT; assay: Cell cycle arrest in human HaCaT cells assessed as accumulation at M phase by Hoechst staining based fluorescence assay; assay type: functional; details: not given

| SMILES | Activity |
| --- | --- |
| COc1cccc(/C=C/C(=O)c2c(OC)cc(OC)cc2OC)c1 | Active |

system: HCT-116; assay: Induction of apoptosis in human HCT116 cells harboring wild-type p53 assessed as increase in cleaved caspase3 at 2 times IC50 after 48 hrs by Hoechst staining based assay; assay type: functional, cell-based; details: not given

| SMILES | Activity |
| --- | --- |
| COc1cccc(/C=C/C(=O)c2c(OC)cc(OC)cc2OC)c1 | Active |

system: HCT-116; assay: Cell cycle arrest in human HCT116 cells harboring wild-type p53 assessed as mitotic index at 10 uM measured after 48 hrs by Hoechst staining based fluorescence assay (reference value: 2.3); assay type: functional; details: not given

| SMILES | Activity_index |
| --- | --- |
| COc1cccc(/C=C/C(=O)c2c(OC)cc(OC)cc2OC)c1 | 4.5 |

system: NCI-H727; assay: Cell cycle arrest in human NCI-H727 cells assessed as accumulation at G1/S phase by Hoechst staining based fluorescence assay; assay type: functional; details: not given

| SMILES | Activity |
| --- | --- |
| COc1cccc(/C=C/C(=O)c2c(OC)cc(OC)cc2OC)c1 | Active |

system: Caco-2; assay: Cytotoxicity against human Caco2 cells assessed as cell viability after 48 hrs by Hoechst 33342 staining based assay; assay type: functional; details: Caco-2, 48 h

| SMILES | IC50 [µM] |
| --- | --- |
| COc1cccc(/C=C/C(=O)c2c(OC)cc(OC)cc2OC)c1 | 3.9 |

system: not listed separately; assay: Cytotoxicity against human fibroblasts assessed as cell survival at 50 uM after 48 hrs by Hoechst 33342 staining based assay relative to control; design: species or system Fibroblast; details: read-out: Survival

| SMILES | viability at 48 h, 50 µM [%] |
| --- | --- |
| COc1cccc(/C=C/C(=O)c2c(OC)cc(OC)cc2OC)c1 | 66 |

system: NCI-H727; assay: Cytotoxicity against human NCI-H727 cells assessed as cell viability after 48 hrs by Hoechst 33342 staining based assay; assay type: functional; details: NCI-H727, 48 h

| SMILES | IC50 [µM] |
| --- | --- |
| COc1cccc(/C=C/C(=O)c2c(OC)cc(OC)cc2OC)c1 | 8.2 |

system: HCT-116; assay: Induction of apoptosis in human HCT116 cells harboring wild-type p53 assessed as increase in late apoptosis at 2 times IC50 after 48 hrs by YoPro/propidium iodide/Hoechst staining based assay; assay type: functional, cell-based; details: not given

| SMILES | Activity |
| --- | --- |
| COc1cccc(/C=C/C(=O)c2c(OC)cc(OC)cc2OC)c1 | Active |

system: NCI-H727; assay: Cell cycle arrest in human NCI-H727 cells harboring p53 mutant assessed as mitotic index at 10 uM measured after 48 hrs by Hoechst staining based fluorescence assay (reference value: 1.1); assay type: functional; details: not given

| SMILES | Activity_index |
| --- | --- |
| COc1cccc(/C=C/C(=O)c2c(OC)cc(OC)cc2OC)c1 | 1.7 |

system: Caco-2; assay: Cell cycle arrest in human Caco2 cells assessed as accumulation at M phase by Hoechst staining based fluorescence assay; assay type: functional; details: not given

| SMILES | Activity |
| --- | --- |
| COc1cccc(/C=C/C(=O)c2c(OC)cc(OC)cc2OC)c1 | Active |

system: Fibroblast; assay: Cytotoxicity against human fibroblasts assessed as cell viability after 48 hrs by Hoechst 33342 staining based assay; details: not given

| SMILES | IC50 [µM] |
| --- | --- |
| COc1cccc(/C=C/C(=O)c2c(OC)cc(OC)cc2OC)c1 | > 20 |

system: Caco-2; assay: Cell cycle arrest in human Caco2 cells assessed as accumulation at S phase at 10 uM measured after 48 hrs by Hoechst/BrdU staining based fluorescence assay (reference value: […]); assay type: functional; details: not given

| SMILES | Activity [%] |
| --- | --- |
| COc1cccc(/C=C/C(=O)c2c(OC)cc(OC)cc2OC)c1 | 31 |

system: not listed separately; assay: Selectivity index, ratio of IC50 for human fibroblasts to IC50 for human NCI-H727 cells; details: not given

| SMILES | Ratio IC50 |
| --- | --- |
| COc1cccc(/C=C/C(=O)c2c(OC)cc(OC)cc2OC)c1 | >6.1 |

system: MCF7; assay: Induction of apoptosis in human MCF7 cells harboring wild-type p53 assessed as upregulation of p21 measured after 48 hrs by Hoechst staining based fluorescence assay; assay type: functional, cell-based; details: not given

| SMILES | Activity |
| --- | --- |
| COc1cccc(/C=C/C(=O)c2c(OC)cc(OC)cc2OC)c1 | Active |

system: PC-3; assay: Induction of apoptosis in human PC3 cells harboring p53 mutant assessed as increase in early apoptosis at 2 times IC50 after 48 hrs by YoPro/propidium iodide/Hoechst staining based assay; assay type: functional, cell-based; details: not given

| SMILES | Activity |
| --- | --- |
| COc1cccc(/C=C/C(=O)c2c(OC)cc(OC)cc2OC)c1 | Active |

system: HCT-116; assay: Induction of apoptosis in human HCT116 cells harboring wild-type p53 assessed as upregulation of cyclinB1 measured after 48 hrs by Hoechst staining based assay; assay type: functional, cell-based; details: not given

| SMILES | Activity |
| --- | --- |
| COc1cccc(/C=C/C(=O)c2c(OC)cc(OC)cc2OC)c1 | Active |

system: NCI-H727; assay: Cell cycle arrest in human NCI-H727 cells harboring p53 mutant assessed as mitotic index at 25 uM measured after 48 hrs by Hoechst staining based fluorescence assay (reference value: 1.1); assay type: functional; details: not given

| SMILES | Activity_index |
| --- | --- |
| COc1cccc(/C=C/C(=O)c2c(OC)cc(OC)cc2OC)c1 | 0.1 |

system: HCT-116; assay: Induction of apoptosis in human HCT116 cells harboring wild-type p53 assessed as increase in early apoptosis at 2 times IC50 after 48 hrs by YoPro/propidium iodide/Hoechst staining based assay; assay type: functional, cell-based; details: not given

| SMILES | Activity |
| --- | --- |
| COc1cccc(/C=C/C(=O)c2c(OC)cc(OC)cc2OC)c1 | Active |

system: PC-3; assay: Cytotoxicity against human PC3 cells assessed as cell survival at 50 uM after 48 hrs by Hoechst 33342 staining based assay relative to control; assay type: functional; details: PC-3, 48 h, read-out: Survival

| SMILES | viability at 50 µM [%] |
| --- | --- |
| COc1cccc(/C=C/C(=O)c2c(OC)cc(OC)cc2OC)c1 | 19 |

system: MCF7; assay: Induction of apoptosis in human MCF7 cells harboring wild-type p53 assessed as upregulation of cyclinB1 measured after 18 hrs by Hoechst staining based assay; assay type: functional, cell-based; details: not given

| SMILES | Activity |
| --- | --- |
| COc1cccc(/C=C/C(=O)c2c(OC)cc(OC)cc2OC)c1 | Active |

system: not listed separately; assay: Selectivity index, ratio of IC50 for human fibroblasts to IC50 for human HaCaT cells; details: not given

| SMILES | Ratio IC50 |
| --- | --- |
| COc1cccc(/C=C/C(=O)c2c(OC)cc(OC)cc2OC)c1 | >9.4 |

system: MDA-MB-231; assay: Cell cycle arrest in human MDA-MB-231 cells harboring p53 mutant assessed as mitotic index at 25 uM measured after 48 hrs by Hoechst staining based fluorescence assay (reference value: 2.1); assay type: functional; details: not given

| SMILES | Activity_index |
| --- | --- |
| COc1cccc(/C=C/C(=O)c2c(OC)cc(OC)cc2OC)c1 | 3.5 |

system: Huh-7; assay: Cytotoxicity against human HuH7 cells assessed as cell viability after 48 hrs by Hoechst 33342 staining based assay; assay type: functional; details: Huh-7, 48 h

| SMILES | IC50 [µM] |
| --- | --- |
| COc1cccc(/C=C/C(=O)c2c(OC)cc(OC)cc2OC)c1 | 8.9 |

system: Caco-2; assay: Cell cycle arrest in human Caco2 cells assessed as mitotic index at 10 uM measured after 48 hrs by Hoechst staining based fluorescence assay (reference value: 3.6); assay type: functional; details: not given

| SMILES | Activity_index |
| --- | --- |
| COc1cccc(/C=C/C(=O)c2c(OC)cc(OC)cc2OC)c1 | 36.8 |

system: PC-3; assay: Induction of apoptosis in human PC3 cells harboring p53 mutant assessed as increase in cleaved caspase3 at 2 times IC50 after 48 hrs by Hoechst staining based assay; assay type: functional, cell-based; details: not given

| SMILES | Activity |
| --- | --- |
| COc1cccc(/C=C/C(=O)c2c(OC)cc(OC)cc2OC)c1 | Active |

system: MDA-MB-231; assay: Induction of apoptosis in human MDA-MB-231 cells harboring p53 mutant assessed as increase in early apoptosis at 2 times IC50 after 24 hrs by YoPro/propidium iodide/Hoechst staining based assay; assay type: functional, cell-based; details: not given

| SMILES | Activity |
| --- | --- |
| COc1cccc(/C=C/C(=O)c2c(OC)cc(OC)cc2OC)c1 | Active |

system: HaCaT; assay: Cell cycle arrest in human HaCaT cells harboring […] p53 assessed as mitotic index at 25 uM measured after 48 hrs by Hoechst staining based fluorescence assay (reference value: 2.6); assay type: functional; details: not given

| SMILES | Activity_index |
| --- | --- |
| COc1cccc(/C=C/C(=O)c2c(OC)cc(OC)cc2OC)c1 | 0.1 |

system: PC-3; assay: Cytotoxicity against human PC3 cells assessed as cell viability after 48 hrs by Hoechst 33342 staining based assay; assay type: functional; details: PC-3, 48 h

| SMILES | IC50 [µM] |
| --- | --- |
| COc1cccc(/C=C/C(=O)c2c(OC)cc(OC)cc2OC)c1 | 3.1 |

system: MDA-MB-231; assay: Induction of apoptosis in human MDA-MB-231 cells harboring p53 mutant assessed as increase in cleaved caspase3 at 2 times IC50 after 24 hrs by Hoechst staining based assay; assay type: functional, cell-based; details: not given

| SMILES | Activity |
| --- | --- |
| COc1cccc(/C=C/C(=O)c2c(OC)cc(OC)cc2OC)c1 | Active |

system: PC-3; assay: Cell cycle arrest in human PC3 cells harboring p53 mutant assessed as mitotic index at 25 uM measured after 48 hrs by Hoechst staining based fluorescence assay (reference value: 2.5); assay type: functional; details: not given

| SMILES | Activity_index |
| --- | --- |
| COc1cccc(/C=C/C(=O)c2c(OC)cc(OC)cc2OC)c1 | 0.3 |

system: Caco-2; assay: Cell cycle arrest in human Caco2 cells assessed as mitotic index at 25 uM measured after 48 hrs by Hoechst staining based fluorescence assay (reference value: 3.6); assay type: functional; details: not given

| SMILES | Activity_index |
| --- | --- |
| COc1cccc(/C=C/C(=O)c2c(OC)cc(OC)cc2OC)c1 | 4.8 |

system: Huh-7; assay: Cell cycle arrest in human HuH7 cells assessed as accumulation at S phase at 10 uM measured after 48 hrs by Hoechst/BrdU staining based fluorescence assay (reference value: 44%); assay type: functional; details: not given

| SMILES | Activity [%] |
| --- | --- |
| COc1cccc(/C=C/C(=O)c2c(OC)cc(OC)cc2OC)c1 | 40 |

system: MDA-MB-231; assay: Induction of apoptosis in human MDA-MB-231 cells harboring p53 mutant assessed as upregulation of cyclinB1 after 18 hrs by Hoechst staining based assay; assay type: functional, cell-based; details: not given

| SMILES | Activity |
| --- | --- |
| COc1cccc(/C=C/C(=O)c2c(OC)cc(OC)cc2OC)c1 | Active |

system: HCT-116; assay: Cell cycle arrest in human HCT116 cells harboring wild-type p53 assessed as accumulation at S phase at 10 uM measured after 48 hrs by Hoechst/BrdU staining based fluorescence assay (reference value: 68.4%); assay type: functional; details: not given

| SMILES | Activity [%] |
| --- | --- |
| COc1cccc(/C=C/C(=O)c2c(OC)cc(OC)cc2OC)c1 | 20 |
